According to patent publication US7943338B2, “Autoimmune conditions and NADPH oxidase defects” (Arexis AB, priority 2002, dated 2011):
“Also recorded” adds a separate entry of the source.

Columns and labels:
[1] = tested on: DA rats; assay: Treatment of hexadecane-induced arthritis with hexadecene; format: in vivo, Rat (Rattus norvegicus)
Procedure: Groups of DA rats were injected i.d. at the base of the tail as follows: • Hexadecane 200 μL day 0; • Hexadecene 200 μL day 0; • Hexadecene 200 μL day −5, Hexadecane 200 μL day 0; • Olive oil 200 μL day −5, Hexadecane 200 μL day 0; • Hexadecene 200 μL day +5, Hexadecane 200 μL day 0; and • Olive oil day 200 μL +5, Hexadecane 200 μL day 0.
The rats were scored as indicated above. Olive oil was used as a control.

[2] = Lymph node distribution of 14C-hexadecane after hexadecene at day -5; format: in vivo, Rat (Rattus norvegicus); details: hexadecene 0, 50, 100 or 200 μL day -5; 14C-hexadecane day 0; day 10
Procedure: An experiment was performed to determine if oils compete for available space in the lymph nodes and if such a competition was the reason for the preventive effects of pre-treatment with hexadecene and undecane. At day −5, DA rats were injected with one of the following amounts of hexadecene: 0 μL, 50 μL, 100 μL, or 200 μL. At day 0, all rats were injected intradermally with 14C-hexadecane at the base of the tail. At day 10, the rats were sacrificed and the lymph nodes were collected and placed in PBS, homogenized, and frozen. 1 mL of the homogenate was then transferred to Ready Safe (Beckman) and analysed in a β-counter (Beckman).

[3] = in vivo; cited from earlier work

**Q.** With hexadecene as the substance, how does the arthritis-inducing capacity ([1]; 200 μL i.d. day 0 alone, FIG. 12, p<0.05 hexadecane vs hexadecene) read?
**A.** Its arthritis-inducing capacity is “does not”.

**Q.** And the “development of hexadecane induced arthritis” value ([1]; hexadecene 200 μL i.d. day -5 or day +5, hexadecane day 0)?
**A.** The value was “None of the rats treated with hexadecene developed arthritis; also recorded: None of the rats treated with hexadecene showed any symptoms of arthritis”.

**Q.** What about the “difference in arthritis scores vs control rats” value ([1]; hexadecene day -5 and day +5, p<0.05) of the same substance?
**A.** Its value is “significant”.

**Q.** What about the “amount of hexadecane in draining lymph nodes” value [2] of the same substance?
**A.** Its value is “not affected”.

**Q.** And the arthritis induction [3]?
**A.** Its arthritis induction is “do not”.
